Data as given in publication PMC9508125, “The evolutionary advantage of an aromatic clamp in plant family 3 glycoside exo-hydrolases” (Nature Communications, 2022).
Numbering of substitutions follows the chain as printed.

What was measured:
Experiment in all cases: Relative rates of hydrolysis of poly-, oligosaccharides and aryl-glycosides
Format in all cases: biochemical
[1] = biological target: T1, HvExoI W286F mutant (Hordeum vulgare, UniProt Q9XEI3, W311F); conditions: substance is the substrate, nd = activity not detected
T1 sequence (Q9XEI3 26-630 W311F): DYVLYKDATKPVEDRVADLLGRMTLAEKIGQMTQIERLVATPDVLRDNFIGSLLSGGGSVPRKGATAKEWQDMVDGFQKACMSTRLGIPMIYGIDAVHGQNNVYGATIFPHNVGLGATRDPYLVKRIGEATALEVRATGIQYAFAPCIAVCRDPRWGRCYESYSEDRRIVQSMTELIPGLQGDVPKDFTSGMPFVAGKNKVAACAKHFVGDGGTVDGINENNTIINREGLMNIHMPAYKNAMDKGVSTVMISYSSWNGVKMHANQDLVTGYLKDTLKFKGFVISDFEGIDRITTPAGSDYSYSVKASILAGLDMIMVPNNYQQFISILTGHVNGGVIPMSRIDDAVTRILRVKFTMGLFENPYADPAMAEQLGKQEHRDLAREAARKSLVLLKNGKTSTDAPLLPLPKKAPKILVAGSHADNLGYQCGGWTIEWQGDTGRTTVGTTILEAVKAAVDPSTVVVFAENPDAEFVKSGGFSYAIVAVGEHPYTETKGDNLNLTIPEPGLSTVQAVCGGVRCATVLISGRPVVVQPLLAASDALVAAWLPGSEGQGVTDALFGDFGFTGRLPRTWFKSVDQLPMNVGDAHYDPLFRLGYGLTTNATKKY
Experimental: (§1) Dependency of activities of WT and mutant HvExoI on pH (McIlvaine buffers in the pH range of 3.5–8.5 at 30 °C) and temperature (100 mM sodium acetate buffer, pH 5.25, temperature range 0–80 °C, 15 min incubations) were determined using 0.2% (w/v) 4NP-Glc[21],[59]. Relative rates of hydrolysis of β-linked poly-, oligosaccharides, and aryl-glucosides were determined using near-homogenous HvExoI at 50 pmoles. […] Kinetic parameters were calculated from the analyses of Michaelis-Menten plots with Grafit 7.0.3[62] and processed by a proportional weighted fit, using nonlinear regression. The relative rates of hydrolysis, kinetic, and inhibition data were rounded to one or two decimal points (Supplementary Tables 2–4).

[2] = biological target: T2, HvExoI W286Y mutant (Hordeum vulgare, UniProt Q9XEI3, W311Y); conditions: substance is the substrate, nd = activity not detected
T2 sequence (Q9XEI3 26-630 W311Y): T1 sequence (Q9XEI3 26-630 W311F) with F286Y
Experimental: as §1

[3] = biological target: T3, HvExoI W434F mutant (Hordeum vulgare, UniProt Q9XEI3, W459F); conditions: substance is the substrate, nd = activity not detected
T3 sequence (Q9XEI3 26-630 W459F): T1 sequence (Q9XEI3 26-630 W311F) with F286W, W434F
Experimental: as §1

[4] = biological target: T4, HvExoI W434Y mutant (Hordeum vulgare, UniProt Q9XEI3, W459Y); conditions: substance is the substrate, nd = activity not detected
T4 sequence (Q9XEI3 26-630 W459Y): T1 sequence (Q9XEI3 26-630 W311F) with F286W, W434Y
Experimental: as §1

[5] = biological target: WT HvExoI (Hordeum vulgare, UniProt Q9XEI3); conditions: substance is the substrate, HvExoI at 50 pmoles, nd = activity not detected
Experimental: as §1

Chain of WT HvExoI (Q9XEI3 entry or part of it): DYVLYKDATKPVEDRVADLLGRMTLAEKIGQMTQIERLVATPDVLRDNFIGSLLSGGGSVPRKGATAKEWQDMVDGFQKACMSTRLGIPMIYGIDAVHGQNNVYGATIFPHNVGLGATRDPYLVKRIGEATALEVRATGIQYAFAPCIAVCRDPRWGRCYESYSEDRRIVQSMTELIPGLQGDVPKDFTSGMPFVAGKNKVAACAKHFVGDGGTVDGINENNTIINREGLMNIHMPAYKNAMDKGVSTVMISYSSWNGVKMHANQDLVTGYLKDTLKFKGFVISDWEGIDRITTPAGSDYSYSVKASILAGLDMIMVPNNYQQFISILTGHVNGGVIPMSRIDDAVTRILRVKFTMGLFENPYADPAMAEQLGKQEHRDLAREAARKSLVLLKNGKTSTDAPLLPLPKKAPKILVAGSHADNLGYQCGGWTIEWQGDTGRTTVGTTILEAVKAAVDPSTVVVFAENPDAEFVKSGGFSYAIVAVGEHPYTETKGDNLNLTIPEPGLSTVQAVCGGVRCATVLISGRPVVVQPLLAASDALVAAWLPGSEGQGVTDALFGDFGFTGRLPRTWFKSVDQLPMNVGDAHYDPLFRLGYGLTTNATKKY

Compound: OC[C@H]1O[C@@H](O[C@H]2C(O)O[C@H](CO)[C@@H](O)[C@@H]2O)[C@H](O)[C@@H](O)[C@@H]1O (some centres unmarked) [Sophorose]
- Activity (relative rate of hydrolysis) [1]: 0.6 ± 0.01 μmole/min per mg protein
- Activity (relative rate of hydrolysis) [2]: 12.5 ± 0.2 μmole/min per mg protein
- Activity (relative rate of hydrolysis) [3]: 6.6 ± 0.4 μmole/min per mg protein
- Activity (relative rate of hydrolysis) [4]: 0.8 ± 0.1 μmole/min per mg protein
- Activity (relative rate of hydrolysis) [5]: 6.0 ± 0.1 μmole/min per mg protein

Compound: OC[C@H]1O[C@@H](O[C@H]2[C@H](O)[C@@H](O)[C@H](O[C@H]3[C@H](O)[C@@H](O)[C@H](O[C@H]4[C@H](O)[C@@H](O)[C@H](O[C@H]5[C@H](O)[C@@H](O)C(O)O[C@@H]5CO)O[C@@H]4CO)O[C@@H]3CO)O[C@@H]2CO)[C@H](O)[C@@H](O)[C@@H]1O (some centres unmarked) [Cellopentaose]
- Activity (relative rate of hydrolysis) [1]: 0.1 ± 0.01 μmole/min per mg protein
- Activity (relative rate of hydrolysis) [2]: 5.8 ± 0.2 μmole/min per mg protein
- Activity (relative rate of hydrolysis) [3]: 1.7 ± 0.1 μmole/min per mg protein
- Activity (relative rate of hydrolysis) [4]: 0.1 ± 0.002 μmole/min per mg protein
- Activity (relative rate of hydrolysis) [5]: 8.4 ± 0.4 μmole/min per mg protein

Compound: Gentiobiose
- Activity (relative rate of hydrolysis) [1]: 0.4 ± 0.03 μmole/min per mg protein
- Activity (relative rate of hydrolysis) [2]: 7.6 ± 0.8 μmole/min per mg protein
- Activity (relative rate of hydrolysis) [3]: 1.2 ± 0.3 μmole/min per mg protein
- Activity (relative rate of hydrolysis) [4]: 0.1 ± 0.01 μmole/min per mg protein
- Activity (relative rate of hydrolysis) [5]: 4.7 ± 0.4 μmole/min per mg protein

Compound: OC[C@H]1O[C@@H](O[C@@H]2[C@@H](O)[C@H](O[C@@H]3[C@@H](O)[C@H](O[C@H]4[C@H](O)[C@@H](CO)OC(O)[C@@H]4O)O[C@H](CO)[C@H]3O)O[C@H](CO)[C@H]2O)[C@H](O)[C@@H](O)[C@@H]1O (some centres unmarked) [Laminaritetraose]
- Activity (relative rate of hydrolysis) [1]: 1.1 ± 0.1 μmole/min per mg protein
- Activity (relative rate of hydrolysis) [2]: 13.8 ± 0.1 μmole/min per mg protein
- Activity (relative rate of hydrolysis) [3]: 15.0 ± 1.5 μmole/min per mg protein
- Activity (relative rate of hydrolysis) [4]: 1.3 ± 0.1 μmole/min per mg protein
- Activity (relative rate of hydrolysis) [5]: 12.3 ± 0.5 μmole/min per mg protein

Compound: O=[N+]([O-])c1ccc(O[C@@H]2O[C@H](CO)[C@@H](O)[C@H](O)[C@H]2O)cc1 [4NP-Glc, 4-nitrophenyl β-D-glucopyranoside]
- Activity (relative rate of hydrolysis) [1]: 0.9 ± 0.01 μmole/min per mg protein
- Activity (relative rate of hydrolysis) [2]: 19.6 ± 0.01 μmole/min per mg protein
- Activity (relative rate of hydrolysis) [3]: 5.0 ± 0.01 μmole/min per mg protein
- Activity (relative rate of hydrolysis) [4]: 1.2 ± 0.1 μmole/min per mg protein
- Activity (relative rate of hydrolysis) [5]: 12.4 ± 0.8 μmole/min per mg protein

Compound: OC[C@H]1O[C@@H](O[C@H]2[C@H](O)[C@@H](CO)OC(O)[C@@H]2O)[C@H](O)[C@@H](O)[C@@H]1O (some centres unmarked) [Laminaribiose]
- Activity (relative rate of hydrolysis) [1]: 0.6 ± 0.04 μmole/min per mg protein
- Activity (relative rate of hydrolysis) [2]: 13.9 ± 0.1 μmole/min per mg protein
- Activity (relative rate of hydrolysis) [3]: 14.9 ± 1.7 μmole/min per mg protein
- Activity (relative rate of hydrolysis) [4]: 1.1 ± 0.1 μmole/min per mg protein

Compound: OC[C@H]1O[C@@H](O[C@H]2[C@H](O)[C@@H](O)[C@H](O[C@H]3[C@H](O)[C@@H](O)C(O)O[C@@H]3CO)O[C@@H]2CO)[C@H](O)[C@@H](O)[C@@H]1O (some centres unmarked) [Cellotriose]
- Activity (relative rate of hydrolysis) [1]: 0.1 ± 0.01 μmole/min per mg protein
- Activity (relative rate of hydrolysis) [2]: 5.6 ± 0.1 μmole/min per mg protein
- Activity (relative rate of hydrolysis) [3]: 1.2 ± 0.3 μmole/min per mg protein
- Activity (relative rate of hydrolysis) [4]: 0.1 ± 0.02 μmole/min per mg protein
- Activity (relative rate of hydrolysis) [5]: 8.8 ± 0.4 μmole/min per mg protein

Compound: OC[C@H]1O[C@@H](O[C@@H]2[C@@H](O)[C@H](O[C@@H]3[C@@H](O)[C@H](O[C@@H]4[C@@H](O)[C@H](O[C@@H]5[C@@H](O)[C@H](O[C@H]6[C@H](O)[C@@H](CO)OC(O)[C@@H]6O)O[C@H](CO)[C@H]5O)O[C@H](CO)[C@H]4O)O[C@H](CO)[C@H]3O)O[C@H](CO)[C@H]2O)[C@H](O)[C@@H](O)[C@@H]1O (some centres unmarked) [Laminarihexaose]
- Activity (relative rate of hydrolysis) [1]: 1.1 ± 0.03 μmole/min per mg protein
- Activity (relative rate of hydrolysis) [2]: 15.8 ± 0.1 μmole/min per mg protein
- Activity (relative rate of hydrolysis) [3]: 15.8 ± 1.0 μmole/min per mg protein
- Activity (relative rate of hydrolysis) [4]: 1.4 ± 0.1 μmole/min per mg protein
- Activity (relative rate of hydrolysis) [5]: 12.2 ± 0.1 μmole/min per mg protein

Compound: laminarin
- Activity (relative rate of hydrolysis) [1]: 1.1 ± 0.1 μmole/min per mg protein
- Activity (relative rate of hydrolysis) [2]: 14.2 ± 1.3 μmole/min per mg protein
- Activity (relative rate of hydrolysis) [3]: 7.8 ± 0.4 μmole/min per mg protein
- Activity (relative rate of hydrolysis) [4]: 0.7 ± 0.03 μmole/min per mg protein
- Activity (relative rate of hydrolysis) [5]: 54.4 ± 0.5 μmole/min per mg protein
